Molecular target: Cyclic GMP-AMP synthase (Homo sapiens, UniProt Q8N884)
Assay: In Vitro Inhibition Assay
Procedure: In vitro inhibition assay of cGAS activity: Add a 5 μL mixture containing 10 mM Tris-Cl pH 7.5, 50 mM NaCl, 5 mM MgCl2, 1 mM DTT, 0.01% Triton X-100, 60 nM 75-bp dsDNA, […], 50 μM GTP, 10 nM of recombinant human cGAS, and serial dilutions of a test compound in DMSO to a 384-well plate and incubate at room temperature for 3 hours. Quench the reaction by the addition of 100 μL of stop solution containing 0.1% formic acid and 0.1 μM internal standard (3′3′-difluoro cGAMP). Measure the amount of cGAMP produced by RapidFire 365 mass spectrometry and evaluate inhibitory effect of a compound by plotting percent specific inhibition of cGAMP production against log concentration of the test compound.

Sequence of Cyclic GMP-AMP synthase (Q8N884 whole entry): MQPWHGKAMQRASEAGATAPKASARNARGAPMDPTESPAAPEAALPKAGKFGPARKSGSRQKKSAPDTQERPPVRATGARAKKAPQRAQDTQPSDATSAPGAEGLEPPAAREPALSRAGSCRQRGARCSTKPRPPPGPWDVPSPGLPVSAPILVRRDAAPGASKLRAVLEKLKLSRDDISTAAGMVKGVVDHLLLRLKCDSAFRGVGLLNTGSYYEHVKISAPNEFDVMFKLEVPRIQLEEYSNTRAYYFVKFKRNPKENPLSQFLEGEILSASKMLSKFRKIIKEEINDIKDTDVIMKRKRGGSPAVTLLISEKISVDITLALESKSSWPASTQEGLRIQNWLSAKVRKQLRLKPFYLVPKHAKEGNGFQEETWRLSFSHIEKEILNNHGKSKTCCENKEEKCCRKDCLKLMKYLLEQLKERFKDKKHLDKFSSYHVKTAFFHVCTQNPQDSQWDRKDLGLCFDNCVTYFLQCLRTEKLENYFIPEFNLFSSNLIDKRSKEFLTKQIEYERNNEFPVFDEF

IC50 [nM]	SMILES
83.9	O=C(CCn1cncn1)N1CCn2c(c(-c3cn[nH]c3)c3ccc(Cl)c(Cl)c32)C1 [US20230391786, Example 49]
16.5	Cn1ncnc1COCC(=O)N1CCn2c(c(-c3cn[nH]c3)c3c(OCC#N)cc(Cl)c(Cl)c32)C1 [US20230391786, Example 181]
96.5	OCCn1cc(-n2cc(-c3cn[nH]c3)c3ccc(Cl)cc32)nn1 [US20230391786, Example 229]
62.5	NC1CCn2c1c(-c1cn[nH]c1)c1ccc(Cl)c(Cl)c12 (centres undefined) [US20230391786, Example 241]
